# Assay results as given in paper PMC12250893, “Systematic Characterization of In Vitro and In Vivo Metabolic Pathways and Identification of Novel Biomarkers of 26 Synthetic Cannabinoids” (Molecules, 2025).
# Legend:
# [1] = Clinical symptoms of rats in metabolic model; assay type: in vivo, rat; conditions: SD rats, dose 0.05-0.5 mg/kg per Table 6
# Method: (§1) Sprague-Dawley male rats (200 ± 20 g) were obtained from SPF (Beijing) Biotechnology Co., Ltd. (Beijing, China). The animals were housed under controlled environmental conditions: Temperature was maintained at 20–25 °C, humidity at 50 ± 10%, and a 12/12 h light/dark cycle was applied. They had ad libitum access to standard laboratory chow and filtered water. A two-week acclimatization period was provided before the experiments began. The 26 SC standards were prepared in normal saline at concentrations of 0.5 mg/mL, 0.1 mg/mL, and 0.05 mg/mL. Each rat was weighed before administration, and the injection dose was adjusted based on body weight. The dosing volume for each rat was maintained at approximately 200 µL.
# (§2) 162 Sprague-Dawley (SD) rats were randomly divided into 27 groups, with six rats in each group. The control group received an injection of normal saline, while the remaining groups were injected with 26 different types of SCs. The dosage administered was determined based on pre-experimental results, specifically selecting the dose that produced the highest level of metabolites in the blood samples collected 1 h after tail vein injection at concentrations of 0.5 mg/kg, 0.1 mg/kg, and 0.05 mg/kg, as shown in Table 6. Subsequently, tail vein administration was conducted at the specified dosage. The orbital venous blood was taken from the outer canthus of the rat with capillaries at 15 min and 1 h. Feces were collected after the blood. The rats were then sacrificed, and their brains and livers were dissected. Samples were immediately frozen in liquid nitrogen and stored at −80 °C until analysis.
# [2] = Human liver microsomal incubation (in vitro metabolic model); conditions: HLM, 37 °C 1 h, then UDPGA 30 min; peak area of parent in experimental group vs degradation control group
# Method: Each of the 26 SCs was configured to 1 mg/mL with acetonitrile. The HLMs, NADPH regeneration solution A, regeneration solution B, and UDPGA solution were thawed at 4 °C. An icebox was prepared, and all additional steps were performed on ice. For this, 10 µL of NADPH regeneration solution A, 2 µL of regeneration solution B, 2 µL of SCs standard, and 10 µL of mixed human liver microsomes were added to 176 µL of 0.1 mol/L phosphate buffer. The mixture was mixed thoroughly and incubated at 37 °C for 1 h. Subsequently, 20 µL of UDPGA solution was added and mixed well, followed by an additional incubation for 30 min. The reaction was stopped by adding 200 µL of ice-cold acetonitrile. Additionally, the negative control group and the degradation control group were set up following the same procedure. […] The unadded components were supplemented with an equal amount of phosphate buffer. All samples were centrifuged at a high speed of 13,500 r for 10 min after reaction termination. The supernatant was collected and subsequently passed through a membrane filter (0.45 μm) prior to sampling.
# The samples were separated and analyzed using a UHPLC-Q-Exactive Orbitrap MS system (Thermo Fisher Scientific, Waltham, MA, USA), which comprised a Thermo-Scientific™ Q-Exactive™(Thermo Fisher Scientific, Waltham, MA, USA) quadrupole electrostatic field orbitrap mass spectrometer coupled to a Vanquish ultrahigh-performance liquid chromatography (UHPLC) system (Thermo Fisher Scientific, Waltham, MA, USA) with a heated electrospray ionization HESI source in the positive ionization mode. The samples were separated on an ACQUITY UPLC BEH C18 Column (100 × 2.1 mm, 1.7 μm) with the column temperature maintained at 30 °C. The chromatographic separation was achieved using a gradient elution program with mobile phase A consisting of 0.1% formic acid in water and mobile phase B containing 0.1% formic acid in acetonitrile. The gradient profile was programmed as follows: Initial conditions were maintained at 5% B from 0 to 1 min, followed by a linear increase to 95% B from 1 to 11 min; the 95% B composition was held from 11 to 15.5 min, then decreased back to 5% B from 15.5 to 16 min, and finally maintained at 5% B from 16 to 18 min. The flow rate was set at 0.3 mL/min, and the injection volume was 10 μL for all analyses.
# The following HESI source conditions were adopted: Acquisition mode was set to positive ion mode; the capillary temperature was maintained at 325 °C, the auxiliary gas heater temperature was set to 350 °C, and the spray voltage was applied at 3.7 kV. The mass spectrometry analysis was carried out in full-scan (FS) mode to trigger data-dependent acquisition in tandem mass spectrometry (FS-ddMS^2) mode. The FS data acquisition was performed using the following parameters: a resolution of 60,000, an automatic gain control (AGC) target of 1 × 10^6, a scan range of m/z 66.7–1000, and a maximum injection time (IT) of 250 ms. The ddMS^2 data acquisition was performed using the following parameters: a resolution of 30,000; an automatic gain control (AGC) target of 1 × 10^5; normalized collision energies (NCEs) of 20, 40, and 70 eV; and a maximum injection time (IT) of 50 ms.
# Data acquisition was executed utilizing Xcalibur 4.3 software (Thermo Fisher Scientific, Waltham, MA, USA). The subsequent analysis of the acquired data was conducted using Thermo Fisher Scientific […] 3.2 software (Thermo Fisher Scientific, Waltham, MA, USA). The workflow’s nodes employed specific parameters: a mass tolerance of 5 ppm, a signal-to-noise threshold of 3, a minimum peak intensity of 1 × 10^5, a maximum peak width of 0.8 min, and a minimum of 3 scans per peak.
# [3] = Metabolite identification, HLM incubation and rat model combined (UHPLC-Q-Exactive Orbitrap MS); design: species or system human; rat; conditions: for Characteristic Metabolite: characteristic / defining metabolites by the screening criteria; for Number of Metabolites / Number of Phase I Metabolites / Number of Phase II Metabolites: in vitro (HLM) and in vivo (rat) models together
# Method: as §1, §2
# For blood samples, 0.5 mL of each sample was mixed with 1.0 mL of acetonitrile. For brain samples, 0.2 g of tissue was combined with 0.5 mL of acetonitrile. For liver samples, 0.5 g of tissue was mixed with 0.5 mL of acetonitrile. For feces samples, 0.2 g of sample was combined with 1 mL of acetonitrile-water (3:1) for grinding and homogenization. Each mixture was sonicated for 40 min, allowed to precipitate at 4 °C for 30 min, and then centrifuged at 13,500 rpm for 10 min. The supernatant was filtered using a syringe filter (0.45 μm) for further testing.
smiles,measurement,setting,value
COC(=O)C(NC(=O)c1nn(CCCCCF)c2ccccc12)C(C)(C)C (centres unmarked) [5F-ADB],Animal manifestations after tail vein drug injection,[1],hematuria
same,Conversion Rate,[2],88.1%
same,Characteristic Metabolite,[3],"Ester hydrolysis, dehydrogenation, and acidification metabolites"
same,Number of Metabolites,[3],25
same,Number of Phase I Metabolites,[3],17
same,Number of Phase II Metabolites,[3],8
CCOC(=O)C(NC(=O)c1nn(CCCCCF)c2ccccc12)C(C)C (centres unmarked) [5F-EMB-PICA],Conversion Rate,[2],80.6%
same,Characteristic Metabolite,[3],"Ester hydrolysis, amide hydrolysis, and oxidative defluorination metabolite"
same,Number of Metabolites,[3],19
same,Number of Phase I Metabolites,[3],9
same,Number of Phase II Metabolites,[3],10
C=CCCCn1nc(C(=O)NC(C(N)=O)C(C)C)c2ccccc21 (centres unmarked) [AB-4en-PINACA],Conversion Rate,[2],98.7%
same,Characteristic Metabolite,[3],"Deamination, hydration, and deamidation metabolites"
same,Number of Metabolites,[3],18
same,Number of Phase I Metabolites,[3],17
same,Number of Phase II Metabolites,[3],1
CN1CCCCC1Cn1cc(C(=O)C2C(C)(C)C2(C)C)c2ccccc21 (centres unmarked) [AB-005],Conversion Rate,[2],60.9%
same,Characteristic Metabolite,[3],"Hydroxylation, de-N-alkyl side chain, dehydrogenation, and dihydroxylation metabolites"
same,Number of Metabolites,[3],17
same,Number of Phase I Metabolites,[3],12
same,Number of Phase II Metabolites,[3],5
CC(C)C(NC(=O)c1nn(Cc2ccc(F)cc2)c2ccccc12)C(N)=O (centres unmarked) [AB-FUBINACA],Conversion Rate,[2],74.6%
same,Characteristic Metabolite,[3],"Hydrolysis, hydroxylation, and deamination metabolites"
same,Number of Metabolites,[3],19
same,Number of Phase I Metabolites,[3],15
same,Number of Phase II Metabolites,[3],4
C=CCCn1nc(C(=O)NC(C(N)=O)C(C)(C)C)c2ccccc21 (centres unmarked) [ADB-3en-BUTINACA],Conversion Rate,[2],98.7%
same,Characteristic Metabolite,[3],"Dihydrodiol, deamination, deamination, and hydroxylation metabolites"
same,Number of Metabolites,[3],22
same,Number of Phase I Metabolites,[3],18
same,Number of Phase II Metabolites,[3],4
C=CCCCn1nc(C(=O)NC(C(N)=O)C(C)(C)C)c2ccccc21 (centres unmarked) [ADB-4en-PINACA],Conversion Rate,[2],18.2%
same,Characteristic Metabolite,[3],"Deamination, hydration, dihydrodiol, and deamination metabolites"
same,Number of Metabolites,[3],30
same,Number of Phase I Metabolites,[3],25
same,Number of Phase II Metabolites,[3],5
CC(C)(C)C(NC(=O)c1nn(CC2CCCCC2)c2ccccc12)C(N)=O (centres unmarked) [ADB-CHMINACA],Animal manifestations after tail vein drug injection,[1],"irritable, with unstable gait and tachypnea"
same,Conversion Rate,[2],62.8%
same,Characteristic Metabolite,[3],"Deamination, deamination of N-alkyl side chains, and hydrolytic metabolites"
same,Number of Metabolites,[3],25
same,Number of Phase I Metabolites,[3],18
same,Number of Phase II Metabolites,[3],7
CCCCCCn1nc(C(=O)NC(C(N)=O)C(C)(C)C)c2ccccc21 (centres unmarked) [ADB-HEXINACA],Conversion Rate,[2],24.8%
same,Characteristic Metabolite,[3],"Deamination, deamidation, amide hydrolysis, and hydroxylation metabolites"
same,Number of Metabolites,[3],31
same,Number of Phase I Metabolites,[3],24
same,Number of Phase II Metabolites,[3],7
CCCCCn1cc(C(=O)NC(C(N)=O)C(C)(C)C)c2cccnc21 (centres unmarked) [ADB-P7AICA],Conversion Rate,[2],42.9%
same,Characteristic Metabolite,[3],"Hydroxylation, deamination, and dehydrogenation metabolites"
same,Number of Metabolites,[3],40
same,Number of Phase I Metabolites,[3],28
same,Number of Phase II Metabolites,[3],12
CCCCCn1c(C(=O)c2cccc3ccccc23)nc2ccccc21 [BIM-018],Conversion Rate,[2],93.7%
same,Characteristic Metabolite,[3],"Ketogenic, hydroxylated, and dehydrogenated metabolites"
same,Number of Metabolites,[3],27
same,Number of Phase I Metabolites,[3],13
same,Number of Phase II Metabolites,[3],14
O=C(c1cccc2ccccc12)c1nc2ccccc2n1CCCCCF [BIM-2201],Conversion Rate,[2],90.2%
same,Characteristic Metabolite,[3],"Oxidative defluorination, dihydrodiol, and hydroxylated metabolite"
same,Number of Metabolites,[3],29
same,Number of Phase I Metabolites,[3],17
same,Number of Phase II Metabolites,[3],12
CCCCCn1cc(C(=O)c2ccc3ccccc3c2)cc1-c1ccccc1F [JWH-307],Conversion Rate,[2],55.2%
same,Characteristic Metabolite,[3],"Hydroxylation, ketogenic, and de-N-alkyl side chain metabolites"
same,Number of Metabolites,[3],20
same,Number of Phase I Metabolites,[3],12
same,Number of Phase II Metabolites,[3],8
C=CCCCn1nc(C(=O)NC(C(=O)OC)C(C)(C)C)c2ccccc21 (centres unmarked) [MDMB-4en-PINACA],Conversion Rate,[2],69.7%
same,Characteristic Metabolite,[3],"Dihydrodiol, ester hydrolysis, ketogenic, and amide hydrolysis metabolites"
same,Number of Metabolites,[3],14
same,Number of Phase I Metabolites,[3],12
same,Number of Phase II Metabolites,[3],2
CCCCCn1cc(C(=O)C2C(C)(C)C2(C)C)c2ccccc21 [UR-144],Conversion Rate,[2],30.5%
same,Characteristic Metabolite,[3],"Hydroxylation, de-N-alkyl side chains, and ketogenic metabolites"
same,Number of Metabolites,[3],24
same,Number of Phase I Metabolites,[3],15
same,Number of Phase II Metabolites,[3],9
